Non-standard residues stand in square brackets, D forms with d. Residues, ends and D or L forms follow the SMILES beside them. *: point of attachment. Sta = CC(C)C[C@H](N)[C@@H](O)CC(=O)O; Isovaleryl = CC(C)CC(=O)*

The experiment concerns the target T1, RmuAP1 (Rhodotorula mucilaginosa, UniProt A0A9P6W3R0).
T1 construct: gene PEP1_2; mature catalytic domain (printed as 300 residues, though residue Ile304 is named), pre- and propeptide removed, C-terminal His6; secreted by Yarrowia lipolytica Po1g
T1 sequence (A0A9P6W3R0 96-425): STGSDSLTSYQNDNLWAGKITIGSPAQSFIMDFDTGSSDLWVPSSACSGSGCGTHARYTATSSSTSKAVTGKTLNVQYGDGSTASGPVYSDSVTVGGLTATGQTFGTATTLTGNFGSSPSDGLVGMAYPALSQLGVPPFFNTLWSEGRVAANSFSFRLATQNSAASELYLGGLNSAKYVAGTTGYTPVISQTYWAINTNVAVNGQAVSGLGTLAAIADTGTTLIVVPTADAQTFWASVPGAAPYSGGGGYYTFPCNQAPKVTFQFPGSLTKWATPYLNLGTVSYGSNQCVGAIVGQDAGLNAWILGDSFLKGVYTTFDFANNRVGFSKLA
Put plainly: X-ray crystal structure of the complex, […] Å. In kind it is binding. As to conditions: crystallised at pH 6.5, 2 M NaCl, 20 °C; active-site cleft, subsites S4 to S2'.

As to `CC(C)CC(=O)N[C@H](C(=O)N[C@H](C(=O)N[C@@H](CC(C)C)[C@@H](O)CC(=O)N[C@@H](C)C(=O)N[C@@H](CC(C)C)[C@@H](O)CC(=O)O)C(C)C)C(C)C` [pepstatin A] (Isovaleryl-VV[Sta]A[Sta]-OH), the “X-ray crystal structure of the complex, 1.78 Å” value is “The crystal structure of the RmuAP1 complexed with pepstatin A was determined”.

For the origin of these results see paper PMC12730222, “The Adaptable Binding Cleft of RmuAP1, a Pepsin-like Peptidase from Rhodotorula mucilaginosa, Enables the Enzyme to Degrade Immunogenic Peptides Derived from Gluten” (Biomolecules, 2025).
